Measured values from article PMC8619914, “Development of Novel Peptides for the Antimicrobial Combination Therapy against Carbapenem-Resistant Acinetobacter baumannii Infection” (Pharmaceutics, 2021).
Converted amounts (≈) assume the structure as drawn. Like-named read-outs stand apart in the source and are kept apart here. Where no end group is shown, it is not given here.

Assays:
[1] = test system: Gram-negative bacterial strains; experiment: organism not typed; conditions: for MIC: read-out: GM (mean MIC of Gram-negative bacterial strains); for GM (mean MIC of Gram-negative bacterial strains): seven Gram-negative strains, 256 assumed for MIC > 128 and 1024 for MIC > 512 μg·mL^−1
Excerpt: (§1) The Gram-negative bacterial strain Escherichia coli (KCTC 1682) and Gram-positive bacterial strain Staphylococcus aureus (KCTC 1621) were purchased from the Korean Collection for Type Cultures (Jeongeup, Korea). Acinetobacter baumannii (KCCM 40203) were purchased from Korea Culture Center of Microorganisms (Seoul, Korea). Additionally, five carbapenem-resistant Acinetobacter baumanii C1–C5 (CRAB C1–C5), which have the OXA-23 gene with carbapenem-resistance were collected from the patients with CRAB bacteremia, who presented symptoms and signs of infection at Korea University Anam Hospital (Seoul, Korea) (IRB registration no. 2020AN0157). The minimum inhibitory concentrations (MIC) of the AMP and antibiotics against the various bacterial strains were assessed using the serial dilution method on Muller–Hinton (MH) media, as described previously. […] Absorbance at 600 nm was measured using a SpectraMAX microplate reader (Molecular Devices, San Jose, CA, USA).
Geometric means (GM) were calculated to compare the relative antimicrobial activities of the analogs against Gram-negative bacteria. […] Next, the antibacterial mechanisms of peptides were investigated.

CRAB C1 biofilm = experiment: Biofilm inhibition, crystal violet; format: cell-based, carbapenem-resistant Acinetobacter baumannii; conditions: Acinetobacter baumannii; 32 μg·mL^−1, CRAB C1, compared to the control; read-out: percentage of biofilm inhibition
Experimental: CRAB C1 cells (2 × 10^5 CFU·mL^−^1) were incubated with PapMA-3 and antibiotics in a tissue-culture well plate in MH medium containing 0.2% glucose for 16 h at 37 °C. The cells were stained with 0.1% (w/v) crystal violet in 0.25% (v/v) acetic acid for 1 h at room temperature; the dye complex was dissolved with ethanol. Absorbance at 595 nm was measured using SpectraMAX microplate reader (Molecular Devices) to quantify the biofilm formation.
Biofilms were quantified by staining with crystal violet. (A) Absorbance of crystal violet-stained biofilms with treatment of PapMA-3 and antibiotics at a concentration range of 32 to 512 μg·mL^−1, assessed at 595 nm. […] CRAB C1 without peptides or antibiotics served as the control (red). Statistical analysis was performed using two-way ANOVA with Dunnett’s comparison test. The values are expressed as the mean ± SEM of three independent experiments and are statistically significant at ** p < 0.01 and *** p < 0.001. ns, not significant.

CRAB C5 [2] = experiment: microbe, parasite or virus in culture; conditions: Acinetobacter baumannii, 16 h, read-out: MIC alone, CRAB C5
Experimental: (§2) The synergistic effects of AMPs and antibiotics were measured using checkerboard assays. Serial dilutions of PapMA-3 and antibiotics were performed from 1 to […] of the MIC. Samples were then cross-mixed and cultured in MH medium with 2 × 10^5 CFU·ml^−^1 bacteria. Results were recorded after 16 h of incubation at 37 °C. The fractional inhibitory concentration index (FICI) was calculated according to the European Committee on Antimicrobial Susceptibility (EUCAST).
(§3) The ability of PapMA-3 to facilitate these antibiotics in penetrating the bacterial membranes of Gram-negative bacteria was investigated.

CRAB C4 [3] = experiment: microbe, parasite or virus in culture; conditions: Acinetobacter baumannii, 16 h, read-out: MIC alone, CRAB C4
Experimental: as §2, §3

CRAB C2 [4] = experiment: microbe, parasite or virus in culture; conditions: Acinetobacter baumannii, 16 h, read-out: MIC alone, CRAB C2
Experimental: as §2, §3

CRAB C1 [5] = experiment: microbe, parasite or virus in culture; conditions: Acinetobacter baumannii, 16 h, read-out: MIC alone, CRAB C1
Experimental: as §2, §3

CRAB C3 [6] = experiment: microbe, parasite or virus in culture; conditions: Acinetobacter baumannii, 16 h, read-out: MIC alone, CRAB C3
Experimental: as §2, §3

CRAB C5 [7] = experiment: microbe, parasite or virus in culture; conditions: 16 h; for MIC: Acinetobacter baumannii, read-out: Minimum Inhibitory Concentration, CRAB C5; for Minimum Inhibitory Concentration, CRAB C5: MH media, 2 × 10^5 CFU·mL^−1, 37 °C, absorbance 600 nm
Excerpt: as §1
(§4) Measurement of the minimum inhibitory concentrations (MIC) was conducted to determine the effect of the hydrophobicity of each antimicrobial peptide on its antimicrobial activity. MIC was defined as the minimum concentration that killed more than 99% of bacteria; it was measured against two standard Gram-negative bacteria (E. coli and A. baumanii), five clinically isolated CRAB (C1–C5), and one Gram-positive bacteria (S. aureus).

[8] = test system: Escherichia coli (KCTC 1682); experiment: microbe, parasite or virus in culture; conditions: for MIC: Escherichia coli, KCTC1682, 16 h, read-out: Minimum Inhibitory Concentration, E. coli; for Minimum Inhibitory Concentration, E. coli: MH media, 2 × 10^5 CFU·mL^−1, 37 °C, 16 h, absorbance 600 nm, MIC kills more than 99% of bacteria
Excerpt: as §1, §4

CRAB C4 [9] = experiment: microbe, parasite or virus in culture; conditions: 16 h; for MIC: Acinetobacter baumannii, read-out: Minimum Inhibitory Concentration, CRAB C4; for Minimum Inhibitory Concentration, CRAB C4: MH media, 2 × 10^5 CFU·mL^−1, 37 °C, absorbance 600 nm
Excerpt: as §1, §4

CRAB C2 [10] = experiment: microbe, parasite or virus in culture; conditions: 16 h; for MIC: Acinetobacter baumannii, read-out: Minimum Inhibitory Concentration, CRAB C2; for Minimum Inhibitory Concentration, CRAB C2: MH media, 2 × 10^5 CFU·mL^−1, 37 °C, absorbance 600 nm
Excerpt: as §1, §4

[11] = test system: Acinetobacter baumannii (KCCM 40203); experiment: microbe, parasite or virus in culture; conditions: for MIC: Acinetobacter baumannii, KCCM40203, 16 h, read-out: Minimum Inhibitory Concentration, A. baumanii; for Minimum Inhibitory Concentration, A. baumanii: KCCM 40203, 16 h
Excerpt: as §1, §4

CRAB C1 [12] = experiment: microbe, parasite or virus in culture; conditions: 16 h; for MIC: Acinetobacter baumannii; for Minimum Inhibitory Concentration, CRAB C1: MH media, 2 × 10^5 CFU·mL^−1, 37 °C, absorbance 600 nm
Excerpt: as §1, §4

[13] = test system: Staphylococcus aureus (KCTC 1621); experiment: microbe, parasite or virus in culture; conditions: for MIC: Staphylococcus aureus, KCTC1621, 16 h, read-out: Minimum Inhibitory Concentration, S.aureus; for Minimum Inhibitory Concentration, S.aureus: KCTC 1621, 16 h
Excerpt: as §1, §4

CRAB C3 [14] = experiment: microbe, parasite or virus in culture; conditions: 16 h; for MIC: Acinetobacter baumannii, read-out: Minimum Inhibitory Concentration, CRAB C3; for Minimum Inhibitory Concentration, CRAB C3: MH media, 2 × 10^5 CFU·mL^−1, 37 °C, absorbance 600 nm
Excerpt: as §1, §4

[15] = read-out: Minimum Inhibitory Concentration, CRAB C1

| Compound | MIC [1] | inhibition at 32 µg/mL (CRAB C1 biofilm) | MIC (CRAB C5 [2]) | MIC (CRAB C4 [3]) | MIC (CRAB C2 [4]) | MIC (CRAB C1 [5]) | MIC (CRAB C3 [6]) | MIC (CRAB C5 [7]) | MIC [8] | MIC (CRAB C4 [9]) | MIC (CRAB C2 [10]) | GM (mean MIC of Gram-negative bacterial strains) [1] | Minimum Inhibitory Concentration, CRAB C5 (CRAB C5 [7]) | Minimum Inhibitory Concentration, E. coli [8] | Minimum Inhibitory Concentration, CRAB C4 (CRAB C4 [9]) | Minimum Inhibitory Concentration, CRAB C2 (CRAB C2 [10]) | Minimum Inhibitory Concentration, A. baumanii [11] | Minimum Inhibitory Concentration, CRAB C1 (CRAB C1 [12]) | Minimum Inhibitory Concentration, S.aureus [13] | Minimum Inhibitory Concentration, CRAB C3 (CRAB C3 [14]) | other results |
| --- | --- | --- | --- | --- | --- | --- | --- | --- | --- | --- | --- | --- | --- | --- | --- | --- | --- | --- | --- | --- | --- |
| C[C@@H](O)[C@H]1C(=O)N2C(C(=O)O)=C(SCCN=CN)C[C@H]12 [Imipenem] | 46 µg/mL | 88.9% | 64 µg/mL | 64 µg/mL | 64 µg/mL | 64 µg/mL | 64 µg/mL | 64 µg/mL (≈ 214 µM) | 0.25 µg/mL (≈ 0.835 µM) | 64 µg/mL (≈ 214 µM) | 64 µg/mL (≈ 214 µM) | – | – | – | – | – | – | – | – | – | MIC [11]: 0.25 µg/mL (≈ 0.835 µM); MIC (CRAB C1 [12]; [15]): 64 µg/mL (≈ 214 µM); MIC (CRAB C1 [12]; read-out: Minimum Inhibitory Concentration, CRAB C1, MH Media): 64 µg/mL (≈ 214 µM); MIC [13]: 1 µg/mL (≈ 3.34 µM); MIC (CRAB C3 [14]): 64 µg/mL (≈ 214 µM) |
| CC(=O)NC[C@H]1CN(c2ccc(N3CCOCC3)c(F)c2)C(=O)O1 [Linezolid] | 329 µg/mL | 4.4% | 512 µg/mL | 512 µg/mL | 256 µg/mL | 256 µg/mL | 256 µg/mL | 512 µg/mL (≈ 1520 µM) | 256 µg/mL (≈ 759 µM) | 512 µg/mL (≈ 1520 µM) | 256 µg/mL (≈ 759 µM) | – | – | – | – | – | – | – | – | – | MIC [11]: 256 µg/mL (≈ 759 µM); MIC (CRAB C1 [12]; [15]): 256 µg/mL (≈ 759 µM); MIC [13]: 1 µg/mL (≈ 2.96 µM); MIC (CRAB C3 [14]): 256 µg/mL (≈ 759 µM) |
| C[C@@H](O)[C@H]1C(=O)N2C(C(=O)O)=C(S[C@@H]3CN[C@H](C(=O)N(C)C)C3)[C@H](C)[C@H]12 [Meropenem] | 64 µg/mL | 79.2% | 64 µg/mL | 128 µg/mL | 64 µg/mL | 128 µg/mL | 64 µg/mL | 64 µg/mL (≈ 167 µM) | 0.25 µg/mL (≈ 0.652 µM) | 128 µg/mL (≈ 334 µM) | 64 µg/mL (≈ 167 µM) | – | – | – | – | – | – | – | – | – | MIC [11]: 0.25 µg/mL (≈ 0.652 µM); MIC (CRAB C1 [12]; [15]): 128 µg/mL (≈ 334 µM); MIC [13]: 1 µg/mL (≈ 2.61 µM); MIC (CRAB C3 [14]): 64 µg/mL (≈ 167 µM) |
| CO[C@H]1/C=C/O[C@@]2(C)Oc3c(C)c(O)c4c(O)c(c(/C=N/N5CCN(C)CC5)c(O)c4c3C2=O)NC(=O)/C(C)=C\C=C\[C@H](C)[C@H](O)[C@@H](C)[C@@H](O)[C@@H](C)[C@H](OC(C)=O)[C@@H]1C [Rifampin] | 101 µg/mL | 77.5% | 256 µg/mL | 128 µg/mL | 64 µg/mL | 128 µg/mL | 128 µg/mL | 256 µg/mL (≈ 311 µM) | 2 µg/mL (≈ 2.43 µM) | 128 µg/mL (≈ 156 µM) | 64 µg/mL (≈ 77.8 µM) | – | – | – | – | – | – | – | – | – | MIC [11]: 4 µg/mL (≈ 4.86 µM); MIC (CRAB C1 [12]; [15]): 128 µg/mL (≈ 156 µM); MIC [13]: 1 µg/mL (≈ 1.22 µM); MIC (CRAB C3 [14]): 128 µg/mL (≈ 156 µM) |
| RWKIFKKIPKFLHSAKKA-NH2 [PapMA-2] | – | – | – | – | – | – | – | – | – | – | – | 146 µg/mL | 128 µg/mL | 64 µg/mL | >128 µg/mL | >128 µg/mL | 128 µg/mL | 128 µg/mL | >128 µg/mL | 64 µg/mL | – |
| RWKIFKKIPKFLHSAKKF-NH2 [PapMA] | – | – | – | – | – | – | – | – | – | – | – | 34 µg/mL | 32 µg/mL | 32 µg/mL | 64 µg/mL | 32 µg/mL | 32 µg/mL | 32 µg/mL | 64 µg/mL | 16 µg/mL | – |
| RWKIFKKIPKFLHSFKKF-NH2 [PapMA-4] | – | – | – | – | – | – | – | – | – | – | – | 10 µg/mL | 8 µg/mL | 16 µg/mL | 16 µg/mL | 8 µg/mL | 8 µg/mL | 8 µg/mL | 32 µg/mL | 8 µg/mL | – |
| RWKIFKKIPKFLHSWKKF-NH2 [PapMA-5] | – | – | – | – | – | – | – | – | – | – | – | 18 µg/mL | 16 µg/mL | 16 µg/mL | 32 µg/mL | 16 µg/mL | 16 µg/mL | 16 µg/mL | 32 µg/mL | 16 µg/mL | – |
| RWKIFKKIPKFLHSWKKW-NH2 [PapMA-6] | – | – | – | – | – | – | – | – | – | – | – | 11 µg/mL | 16 µg/mL | 16 µg/mL | 16 µg/mL | 8 µg/mL | 8 µg/mL | 8 µg/mL | 32 µg/mL | 8 µg/mL | – |
